{
  "source": "ChEMBL document CHEMBL1125141",
  "about": "“Structure-activity relationships of N2-substituted guanines as inhibitors of HSV1 and HSV2 thymidine kinases” (J Med Chem, 1990)",
  "note": "pIC50, pKi: −log10 of the molar value.",
  "data": [
    {"biological_target": "T1, Thymidine kinase (Human alphaherpesvirus 1, UniProt Q9QNF7)", "T1 sequence (Q9QNF7 whole entry)": "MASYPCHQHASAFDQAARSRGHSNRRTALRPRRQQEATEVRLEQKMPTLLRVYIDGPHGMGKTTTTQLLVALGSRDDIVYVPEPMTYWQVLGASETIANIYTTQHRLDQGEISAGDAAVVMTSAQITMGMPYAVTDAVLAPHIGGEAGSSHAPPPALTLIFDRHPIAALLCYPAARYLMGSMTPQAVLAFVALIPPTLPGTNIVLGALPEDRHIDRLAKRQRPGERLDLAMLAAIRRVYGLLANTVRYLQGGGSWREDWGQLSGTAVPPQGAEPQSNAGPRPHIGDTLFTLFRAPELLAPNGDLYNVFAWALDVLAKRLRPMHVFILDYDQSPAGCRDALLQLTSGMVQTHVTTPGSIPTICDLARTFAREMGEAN", "assay": "Inhibition of TdR phosphorylation using thymidine kinase (TK) assay for herpes simplex virus type 1 (HSV-1).", "format": "functional", "values": [
      {"smiles": "CCCCCCNC1=NC(=O)C2N=CN([C@H]3C[C@H](O)[C@@H](CO)O3)C2=N1", "note": "(some centres not stated)", "pKi": 5.59}
    ]},
    {"biological_target": "T1, Thymidine kinase", "assay": "Inhibition of TdR phosphorylation using thymidine kinase assay for herpes simplex virus type 1", "format": "functional", "values": [
      {"smiles": "CCCCc1ccc(Nc2nc3nc[nH]c3c(=O)[nH]2)cc1", "pIC50": 4.30},
      {"smiles": "O=c1nc(Nc2cccc(CO)c2)[nH]c2nc[nH]c12", "pIC50": 4.60},
      {"smiles": "O=c1[nH]c(NCc2ccc(Cl)cc2)nc2nc[nH]c12", "pIC50": 5.07},
      {"smiles": "OCCCCCNc1nc(O)c2[nH]cnc2n1", "pIC50": 4.00},
      {"smiles": "Oc1[nH]c(Nc2ccc(F)c(Cl)c2)nc2ncnc1-2", "pIC50": 5.10},
      {"smiles": "O=c1[nH]c(Nc2ccc(F)c(F)c2)nc2nc[nH]c12", "pIC50": 4.30},
      {"smiles": "CCc1cccc(Nc2nc3nc[nH]c3c(=O)[nH]2)c1", "pIC50": 5.60},
      {"smiles": "Cc1ccc(Nc2nc3nc[nH]c3c(=O)[nH]2)cc1", "pIC50": 4.30},
      {"smiles": "O=c1[nH]c(Nc2cccc(C(F)(F)F)c2)nc2nc[nH]c12", "pIC50": 6.82},
      {"smiles": "Oc1[nH]c(Nc2cccc(Cl)c2)nc2ncnc1-2", "pIC50": 5.89},
      {"smiles": "Oc1[nH]c(Nc2ccc(Br)cc2)nc2ncnc1-2", "pIC50": 6.00},
      {"smiles": "O=c1[nH]c(Nc2ccc(O)cc2)nc2nc[nH]c12", "pIC50": 3.85},
      {"smiles": "Oc1[nH]c(Nc2ccc3ccccc3c2)nc2ncnc1-2", "pIC50": 4.40},
      {"smiles": "Oc1[nH]c(Nc2ccc(C(F)(F)F)cc2)nc2ncnc1-2", "pIC50": 4.52},
      {"smiles": "CCCCCCNc1nc(O)c2[nH]cnc2n1", "pIC50": 4.26},
      {"smiles": "Oc1[nH]c(Nc2ccc(Br)c(Br)c2)nc2ncnc1-2", "pIC50": 5.52}
    ]}
  ]
}
